From ChEMBL document CHEMBL5104193, “Hypoxia-Activated Prodrugs with Dual COX-2/CA Inhibitory Effects on Attenuating Cardiac Inflammation under Hypoxia” (J Med Chem, 2022)
pIC50: −log10 of the molar value. Active and inactive are the calls of the source. No cut-off for these calls is given here.

How the values were obtained:
H9c2 [1] = assay: Protection against LPS induced cell injury in rat H9c2 cells assessed as increase in cell viability under hypoxic condition at 0.001 to 10 uM by CCK-8 assay; format: functional, cell-based; conditions: dose 0.001-10 µM
[2] = Inhibition of Carbonic anhydrase (unknown origin); parameters: species or system Homo sapiens
H9c2 [3] = assay: Protection against LPS/ hypoxia induced cell injury in rat H9c2 cells assessed as recovery of cell viability at 0.001 to 10 uM by CCK-8 assay; format: functional, cell-based; conditions: dose 0.001-10 µM
H9c2 [4] = assay: Protection against LPS/hypoxia induced apoptosis in rat H9c2 cells assessed as reduction in necrotic cells at 10 umol/L incubated for 4 hrs under hypoxia condition by AnnexinV-FITC/propidium iodide staining based flow cytometry analysis (reference value: 31.02%); format: functional; parameters: scale not given: the % may be the effect or the level left; conditions: dose 10 µmol/L, at 10 µM
NTR = assay: Stability of the compound assessed as NTR (unknown origin) mediated hydrolysis by measuring half life by UV spectrophotometry; format: ADME; conditions: human, NTR enzyme
H9c2 [5] = assay: Inhibition of Carbonic anhydrase in LPS/hypoxia induced rat H9c2 cells using p-nitrophenyl acetate as substrate by microplate reader method; format: cell-based
H9c2 [6] = assay: Anti-inflammatory activity in LPS/hypoxia induced rat H9c2 cells assessed as reduction of IL-6 protein expression at 10 uM by Western blot analysis; format: functional, cell-based
H9c2 [7] = assay: Anti-inflammatory activity in LPS/hypoxia induced rat H9c2 cells assessed as reduction of TNF-alpha protein expression at 10 uM by Western blot analysis; format: functional, cell-based
H9c2 [8] = assay: Anti-inflammatory activity in LPS/hypoxia induced rat H9c2 cells assessed as reduction of IL-1 beta protein expression at 10 uM by Western blot analysis; format: functional, cell-based
H9c2 [9] = assay: Anti-inflammatory activity in LPS/hypoxia induced rat H9c2 cells assessed as increase in VEGF expression at 10 uM by Western blot analysis; format: functional, cell-based
H9c2 [10] = assay: Anti-inflammatory activity in rat H9c2 cells assessed as downregulation of cytochrome C expression at 10 uM by Western blot analysis; format: functional, cell-based
H9c2 [11] = assay: Anti-inflammatory activity in rat H9c2 cells assessed as inhibition of endogenous IL-6 protein expression by DAPI staining based immunofluorescence analysis; format: functional, cell-based
H9c2 [12] = assay: Protection against LPS/hypoxia induced cell injury in rat H9c2 cells assessed as recovery of cell viability by CCK-8 assay (reference value: 69.0%); format: functional
H9c2 [13] = assay: Reversal of LPS/hypoxia induced mitochondrial membrane potential loss in rat H9c2 cells by JC-1 dye based flow cytometry analysis; format: functional, cell-based
H9c2 [14] = assay: Reversal of LPS/hypoxia induced mitochondrial membrane potential loss in rat H9c2 cells assessed as increase in JC-1 polymer morphology by JC-1 dye based flow cytometry analysis; format: functional, cell-based; conditions: time 20.0 min
H9c2 [15] = assay: Reversal of ATP level in LPS/hypoxia induced rat H9c2 cells by multimode plate reader analysis; format: functional, cell-based
H9c2 [16] = assay: Inhibition of intracellular ROS level in LPS/hypoxia induced rat H9c2 cells by DCFH-DA probe based fluorescence confocal microscopy analysis; format: functional, cell-based
H9c2 [17] = assay: Inhibition of intracellular ROS level in LPS/hypoxia induced rat H9c2 cells in presence of Na2WO4 by DCFH-DA probe based fluorescence confocal microscopy analysis; format: functional, cell-based
Rattus norvegicus [18] = assay: Antiinflammatory activity against LPS/talc powder induced pericarditic Wistar rat assessed as restoration of heart rate at 20 mg/kg, ip pretreated for 2 hrs followed by LPS/tal powder stimulation measured after 48 hrs by ECG analysis; format: functional, organism-based; conditions: time 50.0 hrs
Rattus norvegicus [19] = assay: Antiinflammatory activity against LPS/talc powder induced pericarditic Wistar rat assessed as improvement in low voltage of R wave at 20 mg/kg, ip pretreated for 2 hrs followed by LPS/tal powder stimulation measured after 48 hrs by ECG analysis; format: functional, organism-based; conditions: time 50.0 hrs
Rattus norvegicus [20] = assay: Antiinflammatory activity against LPS/talc powder induced pericarditic Wistar rat assessed as reduction in heart swelling at 20 mg/kg, ip pretreated for 2 hrs followed by LPS/tal powder stimulation measured after 48 hrs; format: functional, organism-based; conditions: time 50.0 hrs
Rattus norvegicus [21] = assay: Antiinflammatory activity against LPS/talc powder induced pericarditic Wistar rat assessed as elimination of pericardial effusion at 20 mg/kg, ip pretreated for 2 hrs followed by LPS/tal powder stimulation measured after 48 hrs; format: functional, organism-based; conditions: time 50.0 hrs
Rattus norvegicus [22] = assay: Antiinflammatory activity against LPS/talc powder induced pericarditic Wistar rat assessed as reduction in infarct size at 20 mg/kg, ip pretreated for 2 hrs followed by LPS/tal powder stimulation measured after 48 hrs by TTC staining based assay; format: functional, organism-based; conditions: time 50.0 hrs
Rattus norvegicus [23] = assay: Antiinflammatory activity in LPS/talc powder induced pericarditic Wistar rat assessed as increase in CK-MB level in serum at 20 mg/kg, ip pretreated for 2 hrs followed by LPS/tal powder stimulation measured after 48 hrs (reference value: 4140+/-256.23 U/L); format: functional; conditions: time 50 hrs
Rattus norvegicus [24] = assay: Antiinflammatory activity in LPS/talc powder induced pericarditic Wistar rat assessed as increase in cTNI level in serum at 20 mg/kg, ip pretreated for 2 hrs followed by LPS/tal powder stimulation measured after 48 hrs (reference value: 0.167+/-0.025 ng/ml); format: functional; conditions: time 50 hrs
Rattus norvegicus [25] = assay: Antiinflammatory activity in LPS/talc powder induced pericarditic Wistar rat model assessed as reduction in cell edema at 20 mg/kg, ip pretreated for 2 hrs followed by LPS/tal powder stimulation measured after 48 hrs by H and E staining based analysis; format: functional, organism-based; conditions: time 50.0 hrs
Rattus norvegicus [26] = assay: Antiinflammatory activity in LPS/talc powder induced pericarditic Wistar rat model assessed as decrease in pericardium thickness at 20 mg/kg, ip pretreated for 2 hrs followed by LPS/tal powder stimulation measured after 48 hrs by H and E staining based analysis; format: functional, organism-based; conditions: time 50.0 hrs
Rattus norvegicus [27] = assay: Antiinflammatory activity in LPS/talc powder induced pericarditic Wistar rat assessed as decrease in TNF-alpha level at 20 mg/kg, ip pretreated for 2 hrs followed by LPS/tal powder stimulation measured after 48 hrs by Western blot analysis; format: functional, organism-based; conditions: time 50.0 hrs
Rattus norvegicus [28] = assay: Antiinflammatory activity in LPS/talc powder induced pericarditic Wistar rat model assessed as increase in VEGF level at 20 mg/kg, ip pretreated for 2 hrs followed by LPS/tal powder stimulation measured after 48 hrs by Western blot analysis; format: functional, organism-based; conditions: time 50.0 hrs
Rattus norvegicus [29] = assay: Antiinflammatory activity in LPS/talc powder induced pericarditic Wistar rat model assessed as reduction in cyt-c expression at 20 mg/kg, ip pretreated for 2 hrs followed by LPS/tal powder stimulation measured after 48 hrs by Western blot analysis; format: functional, organism-based; conditions: time 50.0 hrs
Rattus norvegicus [30] = assay: Antiinflammatory activity in LPS/talc powder induced pericarditic Wistar rat model assessed as suppression of TNF-alpha overexpression in heart at 20 mg/kg, ip pretreated for 2 hrs followed by LPS/tal powder stimulation measured after 48 hrs by IHC analysis; format: functional, organism-based; conditions: time 50.0 hrs

Q: With `COc1ccc2cc([C@H](C)C(=O)OCc3cc(C)cc(COC(=O)Cn4cc(CCCCC(=O)Nc5nnc(S(N)(=O)=O)s5)nn4)c3OCc3ccc([N+](=O)[O-])cc3)ccc2c1` as the compound, how does the Activity (H9c2 [1]) read?
A: Active

Q: With `NS(=O)(=O)c1ccccc1` [BENZENESULFONAMIDE] as the compound, how does the pIC50 [2] read?
A: 5.04

Q: For `COc1ccc2cc([C@H](C)C(=O)OCc3cc(C)cc(COC(=O)NCCc4ccc(S(N)(=O)=O)cc4)c3OCc3ccc([N+](=O)[O-])cc3)ccc2c1`, which Activity (H9c2 [1]) is on record?
A: Active

Q: Which Activity (H9c2 [1]) does the source give for `COc1ccc2c(c1)c(CC(=O)OCc1cc(C)cc(COC(=O)NCCc3ccc(S(N)(=O)=O)cc3)c1OCc1ccc([N+](=O)[O-])cc1)c(C)n2C(=O)c1ccc(Cl)cc1` here?
A: Active

Q: For `COc1ccc2c(c1)c(CC(=O)OCc1cc(C)cc(COC(=O)Cn3cc(CCCCC(=O)Nc4nnc(S(N)(=O)=O)s4)nn3)c1OCc1ccc([N+](=O)[O-])cc1)c(C)n2C(=O)c1ccc(Cl)cc1`, which Activity (H9c2 [3]) is on record?
A: Active

Q: And the Activity (H9c2 [4])?
A: 8.58%

Q: What about the half-life (NTR) of the same compound?
A: 2.8 min

Q: What about the inhibition (H9c2 [5]) of the same compound?
A: Active

Q: And the Activity (H9c2 [6])?
A: Active

Q: And the Activity (H9c2 [7])?
A: Active

Q: What about the Activity (H9c2 [8]) of the same compound?
A: Active

Q: And the Activity (H9c2 [9])?
A: Active

Q: What about the Activity (H9c2 [10]) of the same compound?
A: Active

Q: And the Activity (H9c2 [11])?
A: Active

Q: What about the Activity (H9c2 [1]) of the same compound?
A: Active

Q: And the Activity (H9c2 [12])?
A: 94.9%

Q: And the Activity (H9c2 [13])?
A: Active

Q: And the Activity (H9c2 [14])?
A: Active

Q: And the Activity (H9c2 [15])?
A: Active

Q: And the inhibition (H9c2 [16])?
A: Active

Q: And the inhibition (H9c2 [17])?
A: Active

Q: What about the Activity (Rattus norvegicus [18]) of the same compound?
A: Active

Q: What about the Activity (Rattus norvegicus [19]) of the same compound?
A: Active

Q: And the Activity (Rattus norvegicus [20])?
A: Active

Q: What about the Activity (Rattus norvegicus [21]) of the same compound?
A: Active

Q: What about the Activity (Rattus norvegicus [22]) of the same compound?
A: Active

Q: And the Activity (Rattus norvegicus [23])?
A: 1895 U/L

Q: What about the Activity (Rattus norvegicus [24]) of the same compound?
A: 0.104 ng/mL

Q: And the Activity (Rattus norvegicus [25])?
A: Active

Q: What about the Activity (Rattus norvegicus [26]) of the same compound?
A: Active

Q: What about the Activity (Rattus norvegicus [27]) of the same compound?
A: Active

Q: And the Activity (Rattus norvegicus [28])?
A: Active

Q: And the Activity (Rattus norvegicus [29])?
A: Active

Q: What about the Activity (Rattus norvegicus [30]) of the same compound?
A: Active
